Data: US6710066B2, “Photochemotherapeutic method using 5-aminolevulinic acid and other precursors of endogenous porphyrins” (priority 1989, dated 2004)

Columns and labels:
P. yoelii = assay: ALA-induced fluorescence within erythrocytes parasitized by P. yoelii, mice given ALA; conditions: ALA injected into infected mice
[1] = following intravenous injection; occasionally more than two months; cited from earlier work
[2] = very large doses; cited from earlier work

| SMILES | PpIX accumulation in non-infected erythrocytes and leukocytes (P. yoelii) | PpIX accumulation in plasmodia within erythrocytes (P. yoelii) | persistence of photosensitizing amount of porphyrin in the skin [1] | effect on motor nerve conduction velocity [2] |
| --- | --- | --- | --- | --- |
| NCC(=O)CCC(=O)O [5-aminolevulinic acid (ALA)] | no such accumulation of protoporphyrin | accumulation of fluorescing and photosensitizing concentrations of protoporphyrin within metabolically active parasites |  |  |
| CC1=C(CCC(=O)O)c2cc3[nH]c(cc4nc(cc5[nH]c(cc1n2)c(C)c5C(C)O)C(C)=C4C(C)O)c(C)c3CCC(=O)O (stereo not shown) [HpIX, Hematoporphyrin IX, reference compound] |  |  | at least two weeks | transient decrease in motor nerve conduction velocity |
